Several values for one entry are separate records, joined by “and”; a condition that tells them apart may be missing. Identical values can stand only once.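 A five-concentration, 48-hour dose response in 96-well plates underlies each endpoint, interpolated linearly between surrounding concentrations. GI50 = concentration required for 50% inhibition of growth. At the TGI there is no net growth.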
What was measured:
Assay in all cases: DTP human tumour cell line panel, 48 h
KM12 colon = system: KM12 colon
CAKI-1 renal = system: CAKI-1 renal
TK-10 renal = system: TK-10 renal
COLO 205 colon = system: COLO 205 colon
RPMI-8226 leukemia = system: RPMI-8226 leukemia
SK-OV-3 ovarian = system: SK-OV-3 ovarian
OVCAR-4 ovarian = system: OVCAR-4 ovarian
SNB-75 CNS = system: SNB-75 CNS
BT-549 breast = system: BT-549 breast
MDA-N = system: MDA-N
NCI-H226 lung = system: NCI-H226 lung
MDA-MB-435 = system: MDA-MB-435
HOP-92 NSCLC = system: HOP-92 NSCLC
NCI-H460 lung = system: NCI-H460 lung
ACHN renal = system: ACHN renal
A549 NSCLC = system: A549 NSCLC
SF-268 CNS = system: SF-268 CNS
NCI-H522 lung = system: NCI-H522 lung
MCF7 breast = system: MCF7 breast
SR leukemia = system: SR leukemia
MOLT-4 leukemia = system: MOLT-4 leukemia
786-0 renal = system: 786-0 renal
SK-MEL-2 melanoma = system: SK-MEL-2 melanoma
HCT-15 colon = system: HCT-15 colon
MALME-3M melanoma = system: MALME-3M melanoma
HT29 colon = system: HT29 colon
RXF 393 renal = system: RXF 393 renal
NCI-H23 lung = system: NCI-H23 lung
MDA-MB-231 breast = system: MDA-MB-231 breast
SK-MEL-5 melanoma = system: SK-MEL-5 melanoma
EKVX NSCLC = system: EKVX NSCLC
A498 renal = system: A498 renal
PC-3 prostate = system: PC-3 prostate
LOX IMVI melanoma = system: LOX IMVI melanoma
SF-295 CNS = system: SF-295 CNS
IGROV1 ovarian = system: IGROV1 ovarian
HOP-62 NSCLC = system: HOP-62 NSCLC
OVCAR-8 ovarian = system: OVCAR-8 ovarian
OVCAR-5 ovarian = system: OVCAR-5 ovarian
SF-539 CNS = system: SF-539 CNS
SNB-19 CNS = system: SNB-19 CNS
UO-31 renal = system: UO-31 renal
HCT-116 colon = system: HCT-116 colon
HS 578T breast = system: HS 578T breast
UACC-62 melanoma = system: UACC-62 melanoma
CCRF-CEM leukemia = system: CCRF-CEM leukemia
T-47D breast = system: T-47D breast
NCI/ADR-RES ovarian = system: NCI/ADR-RES ovarian
K-562 leukemia = system: K-562 leukemia
U251 CNS = system: U251 CNS
SW-620 colon = system: SW-620 colon
OVCAR-3 ovarian = system: OVCAR-3 ovarian
M14 melanoma = system: M14 melanoma
HL-60(TB) leukemia = system: HL-60(TB) leukemia
UACC-257 melanoma = system: UACC-257 melanoma
SN12C renal = system: SN12C renal
DU-145 prostate = system: DU-145 prostate
SK-MEL-28 melanoma = system: SK-MEL-28 melanoma
HCC-2998 colon = system: HCC-2998 colon

COc1ccc(-c2csc3c2[N+]2(C)C=CC=C2C3N2CCCC2)cc1 (stereo not given)
TGI (KM12 colon): 34.9 µM
TGI (CAKI-1 renal): > 100 µM
TGI (TK-10 renal): > 100 µM
TGI (COLO 205 colon): 42.6 µM
TGI (RPMI-8226 leukemia): > 100 µM
TGI (SK-OV-3 ovarian): > 100 µM
TGI (OVCAR-4 ovarian): > 100 µM
TGI (SNB-75 CNS): 36.8 µM
TGI (BT-549 breast): 58.3 µM
TGI (MDA-N): > 100 µM
TGI (NCI-H226 lung): 26.5 µM
TGI (MDA-MB-435): 59.5 µM
TGI (HOP-92 NSCLC): 75.9 µM
TGI (NCI-H460 lung): 46.8 µM
TGI (ACHN renal): > 100 µM
TGI (A549 NSCLC): > 100 µM
TGI (SF-268 CNS): > 100 µM
TGI (NCI-H522 lung): 19.1 µM
TGI (MCF7 breast): > 100 µM
TGI (SR leukemia): 35.4 µM
TGI (MOLT-4 leukemia): > 100 µM
TGI (786-0 renal): > 100 µM
TGI (SK-MEL-2 melanoma): 31.1 µM
TGI (HCT-15 colon): > 100 µM
TGI (MALME-3M melanoma): 50.5 µM
TGI (HT29 colon): 43 µM
TGI (RXF 393 renal): > 100 µM
TGI (NCI-H23 lung): 44.7 µM
TGI (MDA-MB-231 breast): > 100 µM
TGI (SK-MEL-5 melanoma): 28.8 µM
TGI (EKVX NSCLC): > 100 µM
TGI (A498 renal): > 100 µM
TGI (PC-3 prostate): > 100 µM
TGI (LOX IMVI melanoma): > 100 µM
TGI (SF-295 CNS): 54 µM
TGI (IGROV1 ovarian): 27.2 µM
TGI (HOP-62 NSCLC): > 100 µM
TGI (OVCAR-8 ovarian): > 100 µM
TGI (OVCAR-5 ovarian): > 100 µM
TGI (SF-539 CNS): 57.7 µM
TGI (SNB-19 CNS): > 100 µM
TGI (UO-31 renal): > 100 µM
TGI (HCT-116 colon): > 100 µM
TGI (HS 578T breast): 98.6 µM
TGI (UACC-62 melanoma): 38.2 µM
TGI (CCRF-CEM leukemia): > 100 µM
TGI (T-47D breast): 76.1 µM
TGI (NCI/ADR-RES ovarian): 63.7 µM
TGI (K-562 leukemia): > 100 µM
TGI (U251 CNS): 23.3 µM
TGI (SW-620 colon): > 100 µM
TGI (OVCAR-3 ovarian): 52.6 µM
TGI (M14 melanoma): > 100 µM
TGI (HL-60(TB) leukemia): > 100 µM
TGI (UACC-257 melanoma): 93.5 µM

CCCC(=O)Nc1cc(/C=C/C(=O)N2C[C@@H]3C[C@]34C2=CC(=O)c2[nH]cc(C)c24)n(C)c1
TGI (KM12 colon): 2.6 µM
GI50 (CAKI-1 renal): 0.0901 µM
TGI (CAKI-1 renal): 0.571 µM and 0.529 µM
GI50 (RPMI-8226 leukemia): 0.193 µM
TGI (RPMI-8226 leukemia): 3.72 µM and 0.757 µM
TGI (SK-OV-3 ovarian): 7.97 µM
GI50 (OVCAR-4 ovarian): 0.18 µM
TGI (OVCAR-4 ovarian): 1.43 µM and 0.474 µM
GI50 (SNB-75 CNS): 0.061 µM
TGI (SNB-75 CNS): 1.21 µM and 0.248 µM
GI50 (BT-549 breast): 0.233 µM
TGI (BT-549 breast): 1.96 µM and 0.749 µM
TGI (MDA-N): 0.879 µM
TGI (NCI-H226 lung): 3.76 µM
GI50 (MDA-MB-435): 0.184 µM
TGI (MDA-MB-435): 1.05 µM and 0.471 µM
GI50 (HOP-92 NSCLC): 0.282 µM
TGI (HOP-92 NSCLC): 1.96 µM and 0.741 µM
GI50 (SN12C renal): 0.064 µM
TGI (SN12C renal): 2.41 µM and 1.59 µM
GI50 (NCI-H460 lung): 0.053 µM
TGI (NCI-H460 lung): 2.51 µM and 0.394 µM
TGI (ACHN renal): 0.796 µM
TGI (SF-268 CNS): 4.89 µM
GI50 (NCI-H522 lung): 0.0287 µM
TGI (NCI-H522 lung): 0.219 µM and 0.141 µM
GI50 (MCF7 breast): 0.0208 µM
TGI (SR leukemia): 0.0709 µM
TGI (MOLT-4 leukemia): 0.134 µM and 0.515 µM
GI50 (786-0 renal): 0.021 µM
GI50 (SK-MEL-2 melanoma): 0.151 µM
TGI (SK-MEL-2 melanoma): 0.817 µM and 0.287 µM
TGI (HCT-15 colon): 9.89 µM
TGI (MALME-3M melanoma): 0.337 µM
TGI (HT29 colon): 2.77 µM
GI50 (RXF 393 renal): 0.111 µM
TGI (RXF 393 renal): 0.298 µM and 0.238 µM
GI50 (NCI-H23 lung): 0.0119 µM
TGI (NCI-H23 lung): 0.645 µM and 0.0939 µM
TGI (MDA-MB-231 breast): 1.68 µM
TGI (SK-MEL-5 melanoma): 0.334 µM
GI50 (EKVX NSCLC): 0.172 µM
GI50 (DU-145 prostate): 0.0252 µM
TGI (A498 renal): 0.689 µM and 0.478 µM
GI50 (PC-3 prostate): 0.125 µM
TGI (PC-3 prostate): 5.7 µM and 0.625 µM
GI50 (LOX IMVI melanoma): 0.0112 µM
TGI (SF-295 CNS): 25 µM
TGI (IGROV1 ovarian): 25 µM
TGI (HOP-62 NSCLC): 25 µM
GI50 (OVCAR-8 ovarian): 0.0447 µM
TGI (OVCAR-8 ovarian): 0.406 µM and 0.285 µM
GI50 (OVCAR-5 ovarian): 0.142 µM
TGI (SF-539 CNS): 4.59 µM
GI50 (SNB-19 CNS): 0.18 µM
TGI (SNB-19 CNS): 25 µM and 11.3 µM
TGI (SK-MEL-28 melanoma): 1.6 µM
TGI (UO-31 renal): 4.34 µM
GI50 (HCT-116 colon): 0.03 µM
TGI (HCT-116 colon): 8.32 µM and 69.9 µM
GI50 (HS 578T breast): 0.143 µM
TGI (HS 578T breast): 1.96 µM and 0.55 µM
GI50 (UACC-62 melanoma): 0.0972 µM
TGI (UACC-62 melanoma): 0.352 µM and 0.222 µM
TGI (CCRF-CEM leukemia): 0.131 µM and 0.267 µM
GI50 (HCC-2998 colon): 0.114 µM
TGI (HCC-2998 colon): 0.687 µM and 0.37 µM
TGI (T-47D breast): 1.08 µM
GI50 (NCI/ADR-RES ovarian): 0.946 µM
TGI (NCI/ADR-RES ovarian): 6.38 µM and 4.77 µM
TGI (K-562 leukemia): 25 µM
GI50 (U251 CNS): 0.0359 µM
TGI (U251 CNS): 3.72 µM and 13.8 µM
TGI (SW-620 colon): 25 µM
TGI (OVCAR-3 ovarian): 1.2 µM
GI50 (M14 melanoma): 0.0672 µM
TGI (M14 melanoma): 1.55 µM and 0.22 µM

Cc1cccc(NC(=S)Nc2cccc(Cl)c2)n1
TGI (KM12 colon): > 100 µM
TGI (CAKI-1 renal): > 100 µM
TGI (TK-10 renal): > 100 µM
TGI (COLO 205 colon): > 100 µM
TGI (RPMI-8226 leukemia): > 100 µM
TGI (SK-OV-3 ovarian): 98.6 µM
TGI (OVCAR-4 ovarian): > 100 µM
TGI (SNB-75 CNS): > 100 µM
TGI (BT-549 breast): > 100 µM
TGI (MDA-N): > 100 µM
TGI (NCI-H226 lung): > 100 µM
TGI (MDA-MB-435): > 100 µM
TGI (SN12C renal): > 100 µM
TGI (NCI-H460 lung): > 100 µM
TGI (ACHN renal): > 100 µM
TGI (A549 NSCLC): > 100 µM
TGI (SF-268 CNS): > 100 µM
TGI (NCI-H522 lung): > 100 µM
TGI (MCF7 breast): > 100 µM
TGI (SR leukemia): > 100 µM
TGI (MOLT-4 leukemia): > 100 µM
TGI (786-0 renal): > 100 µM
TGI (SK-MEL-2 melanoma): > 100 µM
TGI (HCT-15 colon): > 100 µM
TGI (MALME-3M melanoma): > 100 µM
TGI (HT29 colon): > 100 µM
TGI (RXF 393 renal): > 100 µM
TGI (NCI-H23 lung): > 100 µM
TGI (MDA-MB-231 breast): > 100 µM
TGI (SK-MEL-5 melanoma): > 100 µM
TGI (EKVX NSCLC): > 100 µM
TGI (DU-145 prostate): > 100 µM
TGI (A498 renal): > 100 µM
TGI (PC-3 prostate): > 100 µM
TGI (LOX IMVI melanoma): > 100 µM
TGI (SF-295 CNS): > 78.4 µM
TGI (IGROV1 ovarian): > 100 µM
TGI (HOP-62 NSCLC): > 100 µM
TGI (OVCAR-8 ovarian): > 100 µM
TGI (OVCAR-5 ovarian): > 100 µM
TGI (SF-539 CNS): > 100 µM
TGI (SNB-19 CNS): > 100 µM
TGI (SK-MEL-28 melanoma): > 100 µM
TGI (UO-31 renal): > 100 µM
TGI (HCT-116 colon): > 100 µM
TGI (HS 578T breast): > 100 µM
TGI (UACC-62 melanoma): > 100 µM
TGI (CCRF-CEM leukemia): > 100 µM
TGI (HCC-2998 colon): > 100 µM
TGI (T-47D breast): > 100 µM
TGI (NCI/ADR-RES ovarian): > 100 µM
TGI (K-562 leukemia): > 100 µM
TGI (U251 CNS): > 100 µM
TGI (SW-620 colon): > 100 µM
TGI (OVCAR-3 ovarian): > 100 µM
TGI (M14 melanoma): > 100 µM
TGI (HL-60(TB) leukemia): > 100 µM
TGI (UACC-257 melanoma): > 100 µM
